Experiments:
[Ca^2+]cyt = dextran-conjugated calcium green as reporter; cited from earlier work
[1] = test system: root hairs of Arabidopsis thaliana; conditions: cited from earlier work; for induction of membrane depolarization: applied nucleotide or phosphate
[2] = test system: ATMEKK1, ATMPK3, ATPK19, ERF2, ERF3, ERF4 and ACS6 genes; conditions: cited from earlier work
roots = conditions: in vivo; cited from earlier work
Δ[Ca^2+]cyt = conditions: co-application with OGA; cited from earlier work
Arabidopsis pollen = assay: in vitro pollen germination (Arabidopsis); type: cell-based, Arabidopsis thaliana
Description: Effects of Extracellular ATPγS and AMPαS on Pollen Germination. Arabidopsis pollen was germinated in pollen germination media (PGM) containing from about zero to about 400 μM ATPγS or AMPαS. […] The method of collection included vortexing flowers in PGM creating a homogenous suspension of pollen from tens to hundreds of flowers. This method caused the release of a small amount of ATP, 2-5 μM into the PGM (data not shown).
The nitric oxide signaling pathway mediates the inhibition of Arabidopsis pollen germination by ATPγS. To examine the downstream effectors involved in the inhibition of Arabidopsis pollen germination by ATPγS, different agonists and antagonists of the known nitric oxide signaling pathway were examined. […] Some of the nitric oxide signaling pathway agonists are water soluble while others are DMSO soluble.
Strains and Growth Conditions. For the experiments related to the nitric oxide-ATP signaling relationship, all Arabidopsis thaliana plants were ecotype Wassilewskija (WS), and Medicago truncatula plants were strain A17. All of the plants were grown in Metro-Mix 200 soil at 24° C. with constant light. In vitro Pollen Germination. Arabidopsis flowers in stage 12-14 (Smyth et al., 1990) or Medicago truncatula flowers in stage F3 (Firnhaber et al., 2005) were collected and vortexed for 1 min in pollen germination media (PGM) (0.01% boric acid, 1 mM MgSO4, 1 mM CaCl2, 1 mM Ca(NO3)2, 5 mM HEPES, 18% Sucrose pH 7.0). The supernatant containing the pollen was collected by pipet, and up to three rounds of vortexing of the same pollen could be pooled together. The pollen suspended in PGM was then added in 10-12 μL drops to 400 μL PGM+1% agar that had been spread as a thin film across a microscope slide. The slides and pollen were then placed into humidity chambers, petri dishes with water saturated kimwipes, and allowed to germinate at 26° C. overnight. Pictures of the germinated pollen were taken with a digital camera attached to a brightfield microscope at 40×. The digital images were scored for the percent of pollen germinated using the AlphaEase software from Alpha Innotech. Pollen with tubes that were shorter than the diameter of the pollen grain were not counted as germinated or non-germinated. The chemicals: ATPγS, AMPαS, N2, 2-O-dibutyrylguanosine 3′:5′-cyclic monophospohate (Dib cGMP), Sildenafil citrate (Viagra™, Pfizer), and 2-(N,N-Diethylamino)-diazenolate 2-oxide (NONOate) were added to the pollen/PGM suspension prior to adding the drops to the PGM+1% agar. The chemicals 1H-[1,2,4]Oxadiazolo[4,3,-a]quinoxalin-1-one (ODQ), N-[4-[1-(3-Aminopropyl)-2-hydroxy-2-nitrosohydrazino]butyl]-1,3-propanediamine (SNAP), and 3-isobutyl-1-methylxanthine (IBMX) were diluted in DMSO and added to the pollen/PGM suspension to a final concentration of DMSO of 0.1%.
For successful pollen germination it was critical for the plants to be healthy and growing in slightly dry soil. To achieve this, the plants were briefly watered 1-2 days before the experiment. As Johnson-Brousseau and McCormick note in their paper (Johnson-Brousseau and McCormick 2004), a solid base is necessary for best in vitro germination of Arabidopsis pollen. The pollen would not germinate in liquid PGM if not overlaid on a solid PGM+1% agar base, and the vortexing and deposition of the pollen/PGM suspension needed to take place in less than 30 minutes or germination rates dropped considerably.

[3] = test system: [Ca^2+]cyt in excised roots; conditions: cited from earlier work; for effect on [Ca2+]cyt: 10 mM CaCl2; for suppression of the response of roots to eATP: antagonist or channel blocker with eATP
Arabidopsis leaves = conditions: cited from earlier work
Arabidopsis pollen tubes = assay: pollen tube elongation; type: cell-based, Arabidopsis thaliana
Description: Arabidopsis pollen tube elongation is inhibited by ATPγS. As vesicles fuse to deliver membranes to the tip of elongating pollen tubes, ATP is likely to be released. So ATPγS and AMPαS were investigated for their ability to affect pollen tube elongation. After pollen tubes had begun to grow, from about 0 to about 250 μM ATPγS or AMPαS were added and the subsequent growth rate was determined.
Blocking the nitric oxide signaling pathway reverses the inhibition of Arabidopsis elongation by ATPγS. The inhibition of Arabidopsis pollen tube elongation was also mediated via the NO signaling pathway. Pollen tube growth rates were measured in 0.5% DMSO with and without 100 μM ATPγS.
Measurements of pollen tube elongation. Pollen was germinated as described above except 10 μL drops of pollen/PGM suspension were added to 60 μL of PGM+1% agar that had been deposited into a concavity slide. The pollen was allowed to germinate for 1-2 h, so that pollen tubes were clearly visible. Then 90 μL of PGM or PGM containing ATPγS, AMPαS, DMSO or ODQ was added and a photo was taken using a brightfield microscope at 40×. The coordinates of each photo were noted, so that the exact pollen tubes could be photographed 50-60 minutes later. Using Image J, the pollen tube lengths for individual pollen tubes were measured and a growth rate of μm/min was determined.

[4] = test system: nitric oxide levels in elongating Arabidopsis pollen tubes; assay: nitric oxide in elongating pollen tubes, DAF-2D fluorescence; type: cell-based, Arabidopsis thaliana; conditions: 125 μM
Description: Increased extracellular ATPγS increases nitric oxide production in elongating pollen tubes. In addition to using agonists and antagonists to indirectly study the relationship of eATPγS and nitric oxide, direct measurements of increases in nitric oxide after application of ATPγS and AMPαS were examined. Pollen grains have a high level of auto-fluorescence and the nitric oxide levels in elongating Arabidopsis pollen tubes were determined using DAF-2D, a fluorescent marker for the presence of nitric oxide that was dissolved in DMSO. Elongating pollen tubes were treated with DAF-2D alone or with ATPγS or AMPαS.
Measurements of NO in growing pollen tubes treated with ATPγS or AMPαS. Pollen was germinated as described for the pollen elongation measurements. After 1-2 hours when pollen tubes were clearly visible, 90 μL of PGM containing 5 μM 4,5-diaminofluorescein diacetate (DAF-2D, Molecular Probes) with or without ATPγS or AMPαS was added. […] Using Image J, the average fluorescence for the pollen tubes on each slide and each time point were determined. Since background fluorescence for each slide varied, three areas where no pollen tubes were present were averaged and subtracted from the pollen tube averages for each slide. Pollen tubes with and without nucleotides were compared to each other at similar time points to determine if there was a difference in fluorescence.

[5] = water-soluble agonist plus 50 μM ATPγS
[6] = DMSO-soluble agonist plus 50 μM ATPγS, 0.1% DMSO

## Nc1ncnc2c1ncn2[C@@H]1O[C@H](COP(=O)(O)OP(=O)(O)O)[C@@H](O)[C@H]1O [ADP]
[Ca^2+]cyt
  change in [Ca2+]cyt: no change
[1]
  induction of membrane depolarization: induced large depolarizations
[1]; dose-response studies, read-out: half-maximal depolarization
  EC50: ~10 µM
[2]; application of 500 μM
  abundance of mRNAs (MAP kinases, ERF2, ERF3, ERF4, ACS6): induced an increased abundance
roots
  concentration that could inhibit the straight growth of roots: 3 mM

## Nc1ncnc2c1ncn2[C@@H]1O[C@H](COP(=O)(O)OP(O)(O)=S)[C@@H](O)[C@H]1O [ADPβS]
Δ[Ca^2+]cyt
  effect on Δ[Ca2+]cyt together with OGA: similarly increased
Arabidopsis pollen
  agonist of pollen responses: active agonist
roots
  concentration that could inhibit the straight growth of roots: 0.3 mM

## Nc1ncnc2c1ncn2[C@@H]1O[C@H](COP(O)(O)=S)[C@@H](O)[C@H]1O [AMPS]
Δ[Ca^2+]cyt
  effect on Δ[Ca2+]cyt together with OGA: significant inhibitory effect

## Nc1ncnc2c1ncn2[C@@H]1O[C@H](COP(=O)(O)O)[C@@H](O)[C@H]1O [AMP]
[1]
  induction of membrane depolarization: did not
[3]; excised roots
  effect on [Ca2+]cyt: Neither AMP or phosphate induced any significant change
Arabidopsis leaves; equivalent concentrations delivered into the leaves
  effect on superoxide production: no significant effect

## Nc1ncnc2c1ncn2[C@@H]1O[C@H](COP(O)(O)=S)[C@@H](O)[C@H]1O [AMPαS]
Arabidopsis pollen tubes; up to about 250 μM
  effect on pollen tube elongation rates: no significant effect
[4]
  DAF-2D fluorescence: did not significantly change
Arabidopsis pollen
  agonist of pollen responses: is not
Arabidopsis pollen; PGM with about zero to about 400 μM
  percent of germinated pollen: did not significantly change

## Nc1ccn([C@@H]2O[C@H](COP(=O)(O)OP(=O)(O)OP(=O)(O)O)[C@@H](O)[C@H]2O)c(=O)n1 [CTP]
[1]
  induction of membrane depolarization: did not

## CCCC(=O)Nc1nc2c(ncn2C2OC3COP(=O)([O-])OC3C2OC(=O)CCC)c(=O)[nH]1.[Na+] (stereo not drawn) [DibcGMP, N2,2-O-dibutyrylguanosine 3′:5′-cyclic monophospohate]
Arabidopsis pollen; [5]
  effect of added NO pathway agonist on pollen germination with ATPγS: caused 50 μM ATPγS to become inhibitory

## Nc1nc2c(ncn2[C@@H]2O[C@H](COP(=O)(O)OP(=O)(O)OP(=O)(O)O)[C@@H](O)[C@H]2O)c(=O)[nH]1 [GTP]
[1]
  induction of membrane depolarization: induced large depolarizations

## CC(C)Cn1c(=O)n(C)c(=O)c2[nH]cnc21 [IBMX, 3-isobutyl-1-methylxanthine]
Arabidopsis pollen; [6]
  effect of added NO pathway agonist on pollen germination with ATPγS: cause 50 μM ATPγS to inhibit pollen germination

## CCN(CC)[N+]([O-])=NO [NONOate, 2-(N,N-Diethylamino)-diazenolate 2-oxide]
Arabidopsis pollen; [5]
  effect of added NO pathway agonist on pollen germination with ATPγS: caused 50 μM ATPγS to become inhibitory

## O=c1onc2cnc3ccccc3n12 [ODQ, 1H-[1,2,4]Oxadiazolo[4,3,-a]quinoxalin-1-one]
Arabidopsis pollen tubes; 100 μM ODQ alone, 0.5% DMSO
  effect on pollen tube elongation alone: no effect
Arabidopsis pollen tubes; 100 μM ODQ with 100 μM ATPγS, 0.5% DMSO
  reversal of inhibition of pollen tube elongation: reversed the inhibition
Arabidopsis pollen; 100 μM ODQ with 250 μM ATPγS
  reversal of inhibition of pollen germination: reverse the inhibition

## Cc1nc(N=Nc2ccc(S(=O)(=O)O)cc2S(=O)(=O)O)c(COP(=O)(O)O)c(C=O)c1O [PPADS, pyridoxalphosphate-6-azophenyl-2′,4′-disulfonic acid]
[3]
  suppression of the response of roots to eATP: completely suppressed
Arabidopsis leaves; inhibitor treatment
  blocking of ATP-induced superoxide production: block the response

## NCCCNCCCCN(CCCN)N(O)N=O [SNAP, N-[4-[1-(3-Aminopropyl)-2-hydroxy-2-nitrosohydrazino]butyl]-1,3-propanediamine]
Arabidopsis pollen; [6]
  effect of added NO pathway agonist on pollen germination with ATPγS: cause 50 μM ATPγS to inhibit pollen germination

## Cc1cn([C@H]2C[C@H](O)[C@@H](COP(=O)(O)OP(=O)(O)OP(=O)(O)O)O2)c(=O)[nH]c1=O [TTP]
[1]
  induction of membrane depolarization: did not

## O=c1ccn([C@@H]2O[C@H](COP(=O)(O)OP(=O)(O)OP(=O)(O)O)[C@@H](O)[C@H]2O)c(=O)[nH]1 [UTP]
[3]; excised roots
  concentrations at which ineffective on [Ca2+]cyt: below 100 μM

## [Gd] [gadolinium]
[3]
  suppression of the response of roots to eATP: completely suppressed
[2]; cells pre-treated
  blocking of nucleotide-induced gene expression changes: partially blocked

## phosphate
[1]
  induction of membrane depolarization: no effect
[3]; excised roots
  effect on [Ca2+]cyt: Neither AMP or phosphate induced any significant change

Reference: patent US20080058211A1, “Method and Composition for the Modulation of Toxin Resistance in Plant Cells” (BOARD OF REGENTS, THE UNIVERSITY OF TEXAS SYSTEM, priority 2006, published 2008)
